From the supplement of paper PMC8671470

Key:
Conditions in all cases: 72 h
NOMO-1 [1] = test system: NOMO-1
Procedure, shortened: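 Each of fifteen myeloid leukaemia cell lines was seeded in RPMI 1640 at a density titrated to its linear growth range. The cells were incubated for 72 h at 37 °C and 5% CO2 with compounds at five tenfold doses from 1 to 10,000 nM, in duplicate. After ATP luminescence was normalised to vehicle and to a positive control at 10 µM, four-parameter log-logistic curves were fitted. These curves gave the IC50.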

HL-60 [2] = test: cell viability (% survival relative to DMSO control); higher = less cytotoxic
Procedure, shortened: (§1)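 Four-parameter log-logistic fits in drc and PharmacoGx supplied area under the curve where it is given. Underlying viability came from CellTiter-Glo, normalised to DMSO and proteasome-inhibitor wells, with the proteasome inhibitor at 10 μM. HL-60 cells in RPMI 1640 plus 10% FBS had been rescreened against the full library at five tenfold concentrations of 1–10,000 nM, in duplicate on 384-well plates, with DMSO or 100 nM of one of three metabolic inhibitors, for 72 h at 37 °C, 5% CO2.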

BV-173 = test: cell viability (% survival relative to DMSO control, bortezomib = 0%); higher = less cytotoxic
Procedure, shortened: (§2)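 Seeding density for each of the 10 AML and 5 CML cell lines was titrated to the linear growth range. Cells went into 384-well plates pre-printed in duplicate with compounds at 1, 10, 100, 1000 or 10000 nM and were held for 72 h at 37 °C with 5% CO2. CellTiter-Glo luminescence then provided the readout. Percent survival is expressed relative to vehicle at 100% and a 10 µM positive control at 0%, averaged over duplicates.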

HEL = test: as above
Procedure, shortened: as §2

HL-60 [3] = test: as above
Procedure, shortened: as §2

K-562 = test: as above
Procedure, shortened: as §2

KCL-22 = test: as above
Procedure, shortened: as §2

KG-1 = test: as above
Procedure, shortened: as §2

KU-812 = test: as above
Procedure, shortened: as §2

LAMA-84 = test: as above
Procedure, shortened: as §2

ML-2 = test: as above
Procedure, shortened: as §2

MOLM-13 = test: as above
Procedure, shortened: as §2

MV4-11 = test: as above
Procedure, shortened: as §2

Mono-Mac-6 = test: as above
Procedure, shortened: as §2

NOMO-1 [4] = test: as above
Procedure, shortened: as §2

SHI-1 = test: as above
Procedure, shortened: as §2

THP-1 = test: as above
Procedure, shortened: as §2

HL-60 [5] = test: area under dose-response curve (viability, 1 nM-10 uM) (fraction (0-1)); higher = more sensitive
Procedure, shortened: as §1

O=c1[nH]c(=O)n([C@H]2C[C@H](O)[C@@H](CO)O2)cc1I [Idoxuridine]
Conditions	IC50 (cell viability) [µM]
NOMO-1 [1]	> 10

cell viability [%], HL-60 [2]
Conditions	0.001 µM	0.01 µM	0.1 µM	1 µM	10 µM
co-treatment: AZD3965 100 nM	94.7	102	98.5	97.9	102
co-treatment: DMSO vehicle	99.9	100	99.7	94.9	103
co-treatment: GSK2194069 100 nM	95.3	100	101	98.6	86.4
co-treatment: pictilisib 100 nM	84.1	95.8	97.3	93.8	90

Conditions	area under dose-response curve, co-treatment: AZD3965 100 nM	area under dose-response curve, co-treatment: DMSO vehicle	area under dose-response curve, co-treatment: GSK2194069 100 nM	area under dose-response curve, co-treatment: pictilisib 100 nM	cell viability, 1 nM [%]	cell viability, 10 nM [%]	cell viability, 100 nM [%]	cell viability, 1000 nM [%]	cell viability, 10000 nM [%]
BV-173	–	–	–	–	102	86.7	97.6	15.6	1.22
HEL	–	–	–	–	93.8	90.5	92	59.7	36.1
HL-60 [3]	–	–	–	–	113	105	102	95	84
HL-60 [5]	< 0.0301	< 0.0301	< 0.0301	< 0.0301	–	–	–	–	–
K-562	–	–	–	–	85.6	102	99.3	73.3	47.1
KCL-22	–	–	–	–	103	96.7	101	48.9	26.3
KG-1	–	–	–	–	101	108	105	84.1	63.3
KU-812	–	–	–	–	92.9	95.9	102	88.6	66.5
LAMA-84	–	–	–	–	102	88.8	103	87	47.1
ML-2	–	–	–	–	98.1	92.4	105	83.4	28.2
MOLM-13	–	–	–	–	116	91.2	94.1	83.5	32.1
MV4-11	–	–	–	–	103	89.2	92.6	63.6	21.7
Mono-Mac-6	–	–	–	–	96	91.4	93.5	76	52.1
NOMO-1 [4]	–	–	–	–	102	92.2	97.8	95.3	84.8
SHI-1	–	–	–	–	102	99.6	99.3	95.2	60.3
THP-1	–	–	–	–	95.4	100	99.6	104	90
